PubChem BioAssay AID1918955 (Molecular Pharmacology Branch, DTP, NCI, 2023)

Test system: NCI/ADR-RES complex spheroid viability
Experiment: Anticancer human tumor NCI/ADR-RES cell line growth inhibition;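 also: spheroids exposed to compounds for 7 days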;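 as to viability, T/C: 100% = DMSO vehicle treated spheroids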
Settings: for IC50: curve of first compound; for viability, T/C: stronger effect = lower value
Procedure, shortened: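 Drug combinations with the LSD1 inhibitor iadademstat tested on tumor cells co-cultured as spheroids with endothelial cells and mesenchymal stem cells. Concentrations descended in half-log increments from clinical Cmax or 10 microM.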

[1] = second compound 0.1 µM, first compound 0.0316 µM
[2] = second compound 0.1 µM, first compound 0.1 µM
[3] = second compound 0.1 µM, first compound 0.316 µM
[4] = second compound 0.1 µM, first compound 1 µM
[5] = second compound 0.316 µM, first compound 0.0316 µM
[6] = second compound 0.316 µM, first compound 0.1 µM
[7] = second compound 0.316 µM, first compound 0.316 µM
[8] = second compound 0.316 µM, first compound 1 µM
[9] = second compound 1 µM, first compound 0.0316 µM
[10] = second compound 1 µM, first compound 0.1 µM
[11] = second compound 1 µM, first compound 0.316 µM
[12] = second compound 1 µM, first compound 1 µM
[13] = second compound 3.16 µM, first compound 0.0316 µM
[14] = second compound 3.16 µM, first compound 0.1 µM
[15] = second compound 3.16 µM, first compound 0.316 µM
[16] = second compound 3.16 µM, first compound 1 µM
[17] = second compound 10 µM, first compound 0.0316 µM
[18] = second compound 10 µM, first compound 0.1 µM
[19] = second compound 10 µM, first compound 0.316 µM
[20] = second compound 10 µM, first compound 1 µM

| SMILES | IC50 (second compound 0.1 µM) | IC50 (second compound 0.316 µM) | IC50 (second compound 1 µM) | IC50 (second compound 3.16 µM) | IC50 (second compound 10 µM) | viability, T/C [1] | viability, T/C [2] | viability, T/C [3] | viability, T/C [4] | viability, T/C [5] | viability, T/C [6] | viability, T/C [7] | viability, T/C [8] | viability, T/C [9] | viability, T/C [10] | viability, T/C [11] | viability, T/C [12] | viability, T/C [13] | viability, T/C [14] | viability, T/C [15] | other results |
| --- | --- | --- | --- | --- | --- | --- | --- | --- | --- | --- | --- | --- | --- | --- | --- | --- | --- | --- | --- | --- | --- |
| CC(C)c1c(-c2ccccc2)nc2c(C#N)c[nH]n2c1=O + NC1CC1c1ccc(-c2cccc(O)c2)cc1 | > 10000 nM | > 10000 nM | > 10000 nM | > 10000 nM | > 10000 nM | 104% | 107% | 102% | 103% | 113% | 106% | 104% | 102% | 109% | 101% | 106% | 106% | 106% | 108% | 106% | viability, T/C (second compound 0.1 µM, first compound 3.16 µM): 108%; viability, T/C (second compound 0.1 µM, first compound 10 µM): 95.3%; viability, T/C (second compound 0.316 µM, first compound 3.16 µM): 109%; viability, T/C (second compound 0.316 µM, first compound 10 µM): 98.9%; viability, T/C (second compound 1 µM, first compound 3.16 µM): 100%; viability, T/C (second compound 1 µM, first compound 10 µM): 96.5%; viability, T/C [16]: 107%; viability, T/C (second compound 3.16 µM, first compound 3.16 µM): 97.6%; viability, T/C (second compound 3.16 µM, first compound 10 µM): 98.9%; viability, T/C [17]: 87%; viability, T/C [18]: 96.3%; viability, T/C [19]: 91.7%; viability, T/C [20]: 91.2%; viability, T/C (second compound 10 µM, first compound 3.16 µM): 89.2%; viability, T/C (second compound 10 µM, first compound 10 µM): 84.2% |
| CC1COCCN1c1cc(-c2ccnn2C)c2ccnc(-c3ccn[nH]3)c2n1 (stereo not given) + NC1CC1c1ccc(-c2cccc(O)c2)cc1 | 11.8 nM | 13.6 nM | 12.3 nM | 12.6 nM | 13 nM | 11.9% | 2.87% | 1.82% | 1.99% | 11.9% | 2.5% | 2.17% | 2.31% | 16.2% | 2.46% | 1.61% | 1.71% | 16.9% | 2.63% | 1.85% | viability, T/C (second compound 0.1 µM, first compound 0.00316 µM): 94.5%; viability, T/C (second compound 0.1 µM, first compound 0.01 µM): 56.5%; viability, T/C (second compound 0.316 µM, first compound 0.00316 µM): 93.9%; viability, T/C (second compound 0.316 µM, first compound 0.01 µM): 63.8%; viability, T/C (second compound 1 µM, first compound 0.00316 µM): 95.2%; viability, T/C (second compound 1 µM, first compound 0.01 µM): 57.5%; viability, T/C (second compound 3.16 µM, first compound 0.00316 µM): 92.3%; viability, T/C (second compound 3.16 µM, first compound 0.01 µM): 58.4%; viability, T/C [16]: 2.16%; viability, T/C (second compound 10 µM, first compound 0.00316 µM): 75.9%; viability, T/C (second compound 10 µM, first compound 0.01 µM): 58.6%; viability, T/C [17]: 20.3%; viability, T/C [18]: 4.64%; viability, T/C [19]: 2.38%; viability, T/C [20]: 2.48% |
